According to PubChem BioAssay (NCI):
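96-well plates; 48 h exposure; 5 concentrations. Endpoints by linear interpolation between flanking doses. Not reached: highest tested concentration assigned. At the GI50, growth is halved. The concentration for full growth arrest is given as TGI.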

What was measured:
Test in all cases: growth of human tumour cells (NCI), 48 h
A498 renal = system: A498 renal
A549 NSCLC = system: A549 NSCLC
BT-549 breast = system: BT-549 breast
CAKI-1 renal = system: CAKI-1 renal
CCRF-CEM leukemia = system: CCRF-CEM leukemia
DU-145 prostate = system: DU-145 prostate
EKVX NSCLC = system: EKVX NSCLC
HCC-2998 colon = system: HCC-2998 colon
HCT-116 colon = system: HCT-116 colon
HL-60(TB) leukemia = system: HL-60(TB) leukemia
HOP-62 NSCLC = system: HOP-62 NSCLC
HOP-92 NSCLC = system: HOP-92 NSCLC
HS 578T breast = system: HS 578T breast
HT29 colon = system: HT29 colon
IGROV1 ovarian = system: IGROV1 ovarian
K-562 leukemia = system: K-562 leukemia
LOX IMVI melanoma = system: LOX IMVI melanoma
M14 melanoma = system: M14 melanoma
MALME-3M melanoma = system: MALME-3M melanoma
MCF7 breast = system: MCF7 breast
MDA-MB-231 breast = system: MDA-MB-231 breast
MDA-MB-468 breast = system: MDA-MB-468 breast
MOLT-4 leukemia = system: MOLT-4 leukemia
NCI-H226 lung = system: NCI-H226 lung
NCI-H23 lung = system: NCI-H23 lung
OVCAR-4 ovarian = system: OVCAR-4 ovarian
PC-3 prostate = system: PC-3 prostate
RPMI-8226 leukemia = system: RPMI-8226 leukemia
RXF 393 renal = system: RXF 393 renal
SF-268 CNS = system: SF-268 CNS
SF-295 CNS = system: SF-295 CNS
SK-MEL-2 melanoma = system: SK-MEL-2 melanoma
SK-MEL-5 melanoma = system: SK-MEL-5 melanoma
SK-OV-3 ovarian = system: SK-OV-3 ovarian
SN12C renal = system: SN12C renal
SNB-75 CNS = system: SNB-75 CNS
SR leukemia = system: SR leukemia
T-47D breast = system: T-47D breast
TK-10 renal = system: TK-10 renal
UACC-257 melanoma = system: UACC-257 melanoma
UACC-62 melanoma = system: UACC-62 melanoma

For `O=C(/C=C/c1ccc(F)cc1)c1nc2ccccc2n1Cc1ccc(F)cc1`, the GI50 (A498 renal) was > 100 µM, the TGI (A498 renal) was > 100 µM and the GI50 (A549 NSCLC) was 3.92 µM. For the same compound, the TGI (A549 NSCLC) was > 100 µM, the GI50 (BT-549 breast) was 2.6 µM and the TGI (BT-549 breast) was 8.56 µM. For the same compound, the GI50 (CAKI-1 renal) was 2.26 µM, the TGI (CAKI-1 renal) was > 100 µM and the GI50 (CCRF-CEM leukemia) was 2.26 µM. For the same compound, the TGI (CCRF-CEM leukemia) was 7.46 µM, the GI50 (DU-145 prostate) was 3.48 µM and the TGI (DU-145 prostate) was > 100 µM. For the same compound, the GI50 (EKVX NSCLC) was 3.48 µM, the TGI (EKVX NSCLC) was > 100 µM and the GI50 (HCC-2998 colon) was 2.1 µM. The TGI (HCC-2998 colon) was 4.71 µM, the GI50 (HCT-116 colon) was 1.86 µM and the TGI (HCT-116 colon) was 4.46 µM. The GI50 (HL-60(TB) leukemia) was 1.73 µM, the TGI (HL-60(TB) leukemia) was 4.81 µM and the GI50 (HOP-62 NSCLC) was 3.2 µM. The TGI (HOP-62 NSCLC) was 17.6 µM, the GI50 (HOP-92 NSCLC) was 2.56 µM and the TGI (HOP-92 NSCLC) was 57.9 µM. For the same compound, the GI50 (HS 578T breast) was 2.58 µM, the TGI (HS 578T breast) was 20.4 µM and the GI50 (HT29 colon) was 2.33 µM. For the same compound, the TGI (HT29 colon) was 4.93 µM, the GI50 (IGROV1 ovarian) was 3.03 µM and the TGI (IGROV1 ovarian) was > 100 µM. For the same compound, the GI50 (K-562 leukemia) was 2.68 µM, the TGI (K-562 leukemia) was > 100 µM and the GI50 (LOX IMVI melanoma) was 1.56 µM. The TGI (LOX IMVI melanoma) was 3.08 µM, the GI50 (M14 melanoma) was 2.82 µM and the TGI (M14 melanoma) was > 100 µM. It also gave a GI50 (MALME-3M melanoma) of 2.61 µM, a TGI (MALME-3M melanoma) of 9.59 µM and a GI50 (MCF7 breast) of 1.62 µM. The TGI (MCF7 breast) was > 100 µM, the GI50 (MDA-MB-231 breast) was 2.25 µM and the TGI (MDA-MB-231 breast) was 5.59 µM. It also gave a GI50 (MDA-MB-468 breast) of 2.19 µM, a TGI (MDA-MB-468 breast) of 6.05 µM and a GI50 (MOLT-4 leukemia) of 2.06 µM. The TGI (MOLT-4 leukemia) was 6.04 µM, the GI50 (NCI-H226 lung) was 5.79 µM and the TGI (NCI-H226 lung) was > 100 µM. The GI50 (NCI-H23 lung) was 2.88 µM, the TGI (NCI-H23 lung) was 14.1 µM and the GI50 (OVCAR-4 ovarian) was 4.3 µM. The TGI (OVCAR-4 ovarian) was > 100 µM, the GI50 (PC-3 prostate) was 3.63 µM and the TGI (PC-3 prostate) was > 100 µM. It also gave a GI50 (RPMI-8226 leukemia) of 1.86 µM, a TGI (RPMI-8226 leukemia) of 5.03 µM and a GI50 (RXF 393 renal) of 1.59 µM. For the same compound, the TGI (RXF 393 renal) was 3.4 µM, the GI50 (SF-268 CNS) was 3.33 µM and the TGI (SF-268 CNS) was > 100 µM. For the same compound, the GI50 (SF-295 CNS) was 2.59 µM, the TGI (SF-295 CNS) was 8.27 µM and the GI50 (SK-MEL-2 melanoma) was 2.35 µM. The TGI (SK-MEL-2 melanoma) was 6.17 µM, the GI50 (SK-MEL-5 melanoma) was 2.63 µM and the TGI (SK-MEL-5 melanoma) was 9.85 µM. The GI50 (SK-OV-3 ovarian) was 15.5 µM, the TGI (SK-OV-3 ovarian) was > 100 µM and the GI50 (SN12C renal) was 3.64 µM. For the same compound, the TGI (SN12C renal) was > 100 µM, the GI50 (SNB-75 CNS) was 1.11 µM and the TGI (SNB-75 CNS) was 6.44 µM. For the same compound, the GI50 (SR leukemia) was 1.86 µM, the TGI (SR leukemia) was 6.01 µM and the GI50 (T-47D breast) was 3.13 µM. For the same compound, the TGI (T-47D breast) was > 100 µM, the GI50 (TK-10 renal) was 2.97 µM and the TGI (TK-10 renal) was > 100 µM. The GI50 (UACC-257 melanoma) was 3.1 µM, the TGI (UACC-257 melanoma) was > 100 µM and the GI50 (UACC-62 melanoma) was 2.02 µM. It also gave a TGI (UACC-62 melanoma) of 7.09 µM.
